One compound from patent US7615231B2, “Methods for enhancing the morphology, tone, texture and/or appearance of skin or hair using a meadowlactone” (Fan Tech, Ltd., priority 2005, dated 2009) can be followed below.

Data set [1] in a line: Analytical results on purified Meadowlactone (stability). The data set is classed as physicochemical. The text has this: The purified Meadowlactone was identified and subsequently quantified by infrared spectroscopy and HPLC coupled with an evaporative light-scattering detector.
Data set [2] is described as follows: Solubility of the Meadowlactone as a function of pH in aqueous systems. The data set is classed as physicochemical. How it is done:
Solubility of the Meadowlactone as a function of pH was determined in aqueous systems.
In these experiments, 2 weight percent of Meadowlactone was mixed with water at room temperature. The pH of this mixture was varied, starting at an acidic pH and terminating at an alkaline pH. The clarity of the mixture was observed, and the mixture was photographed, at different pH levels (varying by one pH unit at a time).

A further data set deals with skin. The experiment in a line: Initial use trials of skin creams containing the Meadowlactone. The class given is in vivo.

`CCCCCCCCCCCCCCCC1CCCC(=O)O1` (stereo not shown) [Meadowlactone, Meadowfoam Delta Lactone]: the stability result in data set [1] was “extended stability”. Also, in data set [2] (2 weight percent in water at room temperature, pH varied from acidic to alkaline, clarity observed), the “oil / water solubility of the isomeric structures” value is on record as “oil soluble”. The “forms present at the pH reported for human skin” value in data set [2] (pH from about 4.5 to about 5.5) is “both the Meadowlactone and the 5-hydroxy fatty acid exist together in equilibrium”. For the same compound, in the data set with skin, the skin moisturization entry is “very effective”.
